Reference: ChEMBL document CHEMBL3763140, “Discovery of 5-aryl-1,3-dihydro-2H-imidazo[4,5-b]pyridin-2-ones as positive allosteric modulators of metabotropic glutamate subtype-2 (mGlu2) receptors with efficacy in a preclinical model of psychosis” (Bioorg Med Chem Lett, 2016)
In brackets after ≈: the same amount, converted by molar mass. Each block holds one molecule with its values, some of them ahead of it.

Assays:
physchem = conditions: buffer, pH 7
Cerebrospinal fluid [1] = assay: Drug uptake in cerebro spinal fluid of MK801 stimulated Sprague-Dawley rat hyperlocomotion model at 100 mg/kg, po; type: ADME, organism-based; conditions: in vivo, read-out: Drug uptake
[2] = Total clearance in iv dosed Wistar Hannover rat administered as single dose measured up to 24 hrs; type: ADME, organism-based; conditions: in vivo
Plasma [3] = assay: Unbound plasma concentration in PCP stimulated Sprague-Dawley rat hyperlocomotion model at 10 mg/kg, po after 2 hrs; type: ADME, organism-based; conditions: in vivo
[4] = Total plasma concentration in PCP stimulated Sprague-Dawley rat hyperlocomotion model at 30 mg/kg, po after 2 hrs; type: ADME, organism-based
[5] = Total plasma concentration in MK801 stimulated Sprague-Dawley rat hyperlocomotion model at 10 mg/kg, po after 2 hrs; type: ADME, organism-based
Cerebrospinal fluid [6] = assay: Drug uptake in cerebro spinal fluid of MK801 stimulated Sprague-Dawley rat hyperlocomotion model at 10 mg/kg, po; type: ADME, organism-based; conditions: in vivo, read-out: Drug uptake
Plasma [7] = assay: Unbound plasma concentration in MK801 stimulated Sprague-Dawley rat hyperlocomotion model at 10 mg/kg, po after 2 hrs; type: ADME, organism-based; conditions: in vivo
Plasma [8] = assay: Unbound plasma concentration in PCP stimulated Sprague-Dawley rat hyperlocomotion model at 30 mg/kg, po after 2 hrs; type: ADME, organism-based; conditions: in vivo
[9] = Half life in iv dosed Wistar Hannover rat administered as single dose measured up to 24 hrs; type: ADME, organism-based; conditions: in vivo
in vivo = conditions: Wistar Hannover, rat, 10 mg/kg
[10] = Total plasma concentration in MK801 stimulated Sprague-Dawley rat hyperlocomotion model at 30 mg/kg, po after 2 hrs; type: ADME, organism-based
Cerebrospinal fluid [11] = assay: Drug uptake in cerebro spinal fluid of PCP stimulated Sprague-Dawley rat hyperlocomotion model at 10 mg/kg, po; type: ADME, organism-based; conditions: in vivo, read-out: Drug uptake
Cerebrospinal fluid [12] = assay: Drug uptake in cerebro spinal fluid of MK801 stimulated Sprague-Dawley rat hyperlocomotion model at 30 mg/kg, po; type: ADME, organism-based; conditions: in vivo, read-out: Drug uptake
Rattus norvegicus = assay: Intrinsic clearance in iv dosed Wistar Hannover rat administered as single dose measured up to 24 hrs; type: ADME, organism-based; conditions: in vivo
[13] = Total plasma concentration in MK801 stimulated Sprague-Dawley rat hyperlocomotion model at 100 mg/kg, po after 2 hrs; type: ADME, organism-based
Plasma [14] = assay: Unbound plasma concentration in MK801 stimulated Sprague-Dawley rat hyperlocomotion model at 100 mg/kg, po after 2 hrs; type: ADME, organism-based; conditions: in vivo
Cerebrospinal fluid [15] = assay: Drug uptake in cerebro spinal fluid of PCP stimulated Sprague-Dawley rat hyperlocomotion model at 30 mg/kg, po; type: ADME, organism-based; conditions: in vivo, read-out: Drug uptake
Plasma [16] = assay: Unbound plasma concentration in PCP stimulated Sprague-Dawley rat hyperlocomotion model at 100 mg/kg, po after 2 hrs; type: ADME, organism-based; conditions: in vivo
MDR1a (P-glycoprotein) = assay: Apparent permeability across pig LLC-PK cells expressing human/rat MDR1a; type: ADME, cell-based, Sus scrofa; conditions: LLC-PK1
Plasma [17] = assay: Unbound plasma concentration in MK801 stimulated Sprague-Dawley rat hyperlocomotion model at 30 mg/kg, po after 2 hrs; type: ADME, organism-based; conditions: in vivo
[18] = Oral bioavailability in Wistar Hannover rat at 10 mg/kg administered as single dose measured up to 24 hrs; type: ADME, organism-based; conditions: in vivo
[19] = Total plasma concentration in PCP stimulated Sprague-Dawley rat hyperlocomotion model at 10 mg/kg, po after 2 hrs; type: ADME, organism-based
Cerebrospinal fluid [20] = assay: Drug uptake in cerebro spinal fluid of PCP stimulated Sprague-Dawley rat hyperlocomotion model at 100 mg/kg, po; type: ADME, organism-based; conditions: in vivo, read-out: Drug uptake
[21] = Total plasma concentration in PCP stimulated Sprague-Dawley rat hyperlocomotion model at 100 mg/kg, po after 2 hrs; type: ADME, organism-based

SMILES: Cn1c(=O)n(CC(C)(C)C)c2ccc(-c3ccc(S(C)(=O)=O)cc3)nc21
solubility (physchem): 7 µM (≈ 2.61 µg/mL)

concentration (Cerebrospinal fluid [1]): 711 nM
clearance [2]: 42 mL/min/kg
Cp(f) (Plasma [3]): 54000 nM
concentration at 2 h [4]: 8500 nM
concentration at 2 h [5]: 1400 nM
concentration (Cerebrospinal fluid [6]): 21 nM
Cp(f) (Plasma [7]): 42000 nM
Cp(f) (Plasma [8]): 255000 nM
half-life [9]: 58.8 min
Cmax at 24 h (in vivo): 1500 nM
concentration at 2 h [10]: 6700 nM
solubility (physchem): 147 µM (≈ 54 µg/mL)
concentration (Cerebrospinal fluid [11]): 26 nM
concentration (Cerebrospinal fluid [12]): 211 nM
CL (Rattus norvegicus): 2800 mL/min/kg
concentration at 2 h [13]: 22000 nM
Cp(f) (Plasma [14]): 660000 nM
concentration (Cerebrospinal fluid [15]): 399 nM
Cp(f) (Plasma [16]): 750000 nM
Papp (MDR1a (P-glycoprotein)): 31 ×10⁻⁶ cm/s
Cp(f) (Plasma [17]): 201000 nM
bioavailability [18]: 47%
concentration at 2 h [19]: 1800 nM
concentration (Cerebrospinal fluid [20]): 906 nM
concentration at 2 h [21]: 25000 nM
SMILES: Cc1ccc(C(C)(C)O)cc1-c1ccc2c(n1)n(C)c(=O)n2CC(C)(C)C
